# From patent US7105527B2, “N4-acylcytosine nucleosides for treatment of viral infections” (priority 2001, dated 2006)
# Read-outs that look alike come from different tables or passages of the source.
# Legend:
# [1] = Cytotoxicity assay in MT-2 cells; format: cell-based; settings: human, Table 1, read-out: Cytotoxicity in different cells (IC50, μM) MT-2
# Method: (§1) The toxicity of the compounds was assessed in Vero, human PBM, CEM (human lymphoblastoid), MT-2, and HepG2 cells, as described previously (Schinazi […]., Cannon D. L., Xie […]., Smith […]. […] Cycloheximide was included as positive cytotoxic control, and untreated cells exposed to solvent were included as negative controls. The cytotoxicity IC50 was obtained from the concentration-response curve using the median effective method described previously (Chou […]. […] Belen'kii M. S. & Schinazi R. F.
# HIV-1RF = test: Anti-HIV (in MT-2 cells) assay, viral RNA accumulation; format: cell-based; settings: EC90, MT-2 cells, read-out: Anti-HIV-1 activity in different cells (EC90, μM) MT-2
# Method: (§2) In a second antiviral testing system, the potency of the compounds was determined by measurement of viral RNA accumulation in HIV-1RF infected MT-2 cells (Bacheler L T, Paul M, Otto M J, Jadhav P K, Stone B A & Miller J A (1994) An assay for HIV RNIn infected cell lysates, and its use for rapid evaluation of antiviral efficacy. Antivir. Chem. Chemother. 5:111–121). The virus titer was established to determine the dilution producing 15 to 30 ng/RNA per well of HIV RNIn 3 days of infection. HIV-1 RNA was quantified using biotinylated capture and alkaline phosphatase-derivatized reporter oligonucleotides as described previously (Charvet A-S, Camplo M, Faury P, Graciet J C, Mourier N, Chermann J C & Kraus J L (1994) Inhibition of human immunodeficiency virus type 1 replication by phosphonoformate- and phosphonoacetate-2′,3′-dideoxy-3′-thiacytidine conjugates. J. Med. Chem. 37:2216–2223). In a third system, the effect of analogs on the replication of HIV-1NL4-3 was determined via the InterCompany Consortium consensus p24 assay as previously described (Jadhav P K & MacKay M F (1997) Cyclic urea amide: HIV-1 protease inhibitors with low nanomolar potency against both wild types and protease inhibitor resistant mutants of HIV. J. Med. Chem. 40:181–190). Recombinant viruses were recovered by transfecting the appropriate NL4-3 plasmid by lipofection. Virus stocks recovered 7 to 10 days post-transfection were titered on MT-4 cells to determine if the dilution produced 1,000 to 3,000 ng p24 in 4 days. This dilution was then used in drug susceptibility assays, where drug was added 24 h post infection of cells, and p24 quantified by ELISA 3 days later.
# [2] = Cytotoxicity assay in HepG2 cells; format: cell-based; settings: human, Table 1, read-out: Cytotoxicity in different cells (IC50, μM) HepG2
# Method: as §1
# HIV-1LAl = test: Anti-HIV (in PBM cells) assay, reverse transcriptase readout; format: cell-based
# Method: Anti-HIV-1 activity of the compounds was determined in human peripheral blood mononuclear (PBM) cells as described previously (Schinazi […]., Cannon D., Mathis R., Lloyd R. M. Jr., […]., St. Clair M., Wilson J., Furman P. A., Painter G., Choi […]. Antimicrob. Agents Chemother. 1992, 36, 2423; Schinazi […]., Cannon D., Xie […]., Smith G., Hahn E. Antimicrob. Agents Chemother. 1990, 34, 1061). Stock solutions ([…]) of the compounds were prepared in sterile DMSO and then diluted to the desired concentration in growth medium. […] Virus obtained from the cell supernatant was quantified on day 6 after infection by a reverse transcriptase assay using (rA)n.(dT)12.18 as template-primer. […] AZT was included as positive control. The antiviral EC50 and EC90 were obtained from the concentration-response curve using the median effective method described previously (Chou […]. Enzyme Regul. 1984, 22, 27-55; Belen'kii M. S. & Schinazi R. F. Antiviral Res. 1994, 25, 1-11).
# [3] = Cytotoxicity assay in Vero cells; format: cell-based; settings: African green monkey, Table 1, read-out: Cytotoxicity in different cells (IC50, μM) Vero
# Method: as §1
# [4] = Cytotoxicity assay in PBM cells; format: cell-based, human; settings: human, human PBM cells, Table 1, read-out: Cytotoxicity in different cells (IC50, μM) PBM
# Method: as §1
# HIV-1NL4-3 = test: Anti-HIV assay in MT-4 cells, consensus p24 assay; format: cell-based; settings: Human immunodeficiency virus 1, MT4, Table 1, read-out: Anti-HIV-1 activity in different cells (EC90, μM) MT-4
# Method: as §2
# [5] = Cytotoxicity assay in CEM cells; format: cell-based, human; settings: human, CEM lymphoblastoid cells, Table 1, read-out: Cytotoxicity in different cells (IC50, μM) CEM
# Method: as §1
# MT-2 cells = test: Cytotoxicity assay in MT-2 cells; format: cell-based
# Method: as §1
# HepG2 cells = test: Cytotoxicity assay in HepG2 cells; format: cell-based
# Method: as §1
# Vero cells = test: Cytotoxicity assay in Vero cells; format: cell-based
# Method: as §1
# human PBM cells = test: Cytotoxicity assay in PBM cells; format: cell-based
# Method: as §1
# [6] = system: CEM (human lymphoblastoid) cells; test: Cytotoxicity assay in CEM cells; format: cell-based
# Method: as §1
# [7] = Human immunodeficiency virus 1, MT2, Table 1
# [8] = Human immunodeficiency virus 1, PBMC, Table 1, read-out: Anti-HIV-1 activity in different cells (EC90, μM) PBM
# [9] = Table 1, read-out: Cytotoxicity in different cells (IC50, μM) MT-2
# [10] = Table 1, read-out: Cytotoxicity in different cells (IC50, μM) HepG2
# [11] = Table 1, read-out: Anti-HIV-1 activity in different cells (EC90, μM) PBM
# [12] = Table 1, read-out: Cytotoxicity in different cells (IC50, μM) Vero
# [13] = Table 1, read-out: Cytotoxicity in different cells (IC50, μM) PBM
# [14] = Table 1, read-out: Cytotoxicity in different cells (IC50, μM) CEM
# [15] = Table 2, read-out: Cytotoxicity in different cells (IC50, μM) MT-2
# [16] = Table 2, read-out: Cytotoxicity in different cells (IC50, μM) HepG2
# [17] = Table 2, read-out: Anti-HIV-1 activity in different cells (EC90, μM) PBM
# [18] = Table 2, read-out: Cytotoxicity in different cells (IC50, μM) Vero
# [19] = Table 2, read-out: Cytotoxicity in different cells (IC50, μM) PBM
# [20] = Table 2, read-out: Cytotoxicity in different cells (IC50, μM) CEM
Structure (SMILES),IC50 (MT-2 cells; [9]) [µM],EC90 (HIV-1RF; Table 1) [µM],IC50 (HepG2 cells; [10]) [µM],EC90 (HIV-1LAl; [11]) [µM],IC50 (Vero cells; [12]) [µM],IC50 (human PBM cells; [13]) [µM],"IC50 [6, 14] [µM]",IC50 (MT-2 cells; [15]) [µM],EC90 (HIV-1RF; Table 2) [µM],IC50 (HepG2 cells; [16]) [µM],EC90 (HIV-1LAl; [17]) [µM],IC50 (Vero cells; [18]) [µM],IC50 (human PBM cells; [19]) [µM],"IC50 [6, 20] [µM]",other results
"O=C(Nc1nc(=O)n([C@H]2CC[C@@H](CO)O2)cc1F)c1ccc(I)cc1 [Compound 10, β-D-2′,3′-Dideoxy-5-fluoro-N^4-(4-iodobenzoyl)cytidine]",–,–,–,–,–,–,–,–,–,–,–,–,–,–,IC50 [1]: > 50 µM; EC90 (HIV-1RF; [7]): 0.025 µM; IC50 [2]: > 100 µM; EC90 (HIV-1LAl; [8]): 0.019 µM; IC50 [3]: > 100 µM; IC50 [4]: > 100 µM; EC90 (HIV-1NL4-3): 0.17 µM; IC50 [5]: > 100 µM
"O=C(Nc1nc(=O)n([C@H]2CC[C@@H](CO)O2)cc1F)c1ccc(F)cc1 [Compound 11, β-D-2′,3′-Dideoxy-5-fluoro-N^4-(4-fluorobenzoyl)cytidine]",–,–,–,–,–,–,–,–,–,–,–,–,–,–,IC50 [1]: > 50 µM; EC90 (HIV-1RF; [7]): 0.32 µM; IC50 [2]: > 100 µM; EC90 (HIV-1LAl; [8]): 0.027 µM; IC50 [3]: > 100 µM; IC50 [4]: > 100 µM; EC90 (HIV-1NL4-3): 0.61 µM; IC50 [5]: 45.7 µM
"O=C(Nc1nc(=O)n([C@H]2CC[C@@H](CO)O2)cc1F)c1ccccc1[N+](=O)[O-] [Compound 20, β-D-2′,3′-Dideoxy-5-fluoro-N^4-(2-nitrobenzoyl)cytidine]",> 50,0.7,> 100,1.5,> 100,> 100,> 100,–,–,–,–,–,–,–,–
"O=C(Nc1nc(=O)n([C@H]2CC[C@@H](CO)O2)cc1F)c1ccccc1 [Compound 21, β-D-N^4-Benzoyl-2′,3′-dideoxy-5-fluorocytidine]",19,1.2,15.3,1.29,5.8,67,38.5,–,–,–,–,–,–,–,–
"Cc1ccccc1C(=O)Nc1nc(=O)n([C@H]2CC[C@@H](CO)O2)cc1F [Compound 24, β-D-2′,3′-Dideoxy-5-fluoro-N^4-o-toluoylcytidine]",> 50,6.8,> 100,1.2,39.6,20.6,22.5,–,–,–,–,–,–,–,–
"O=C(Nc1nc(=O)n([C@H]2CC[C@@H](CO)O2)cc1F)c1ccco1 [Compound 29, β-D-2′,3′-Dideoxy-5-fluoro-N^4-(2-furoyl)cytidine]",> 50,0.9,31.1,1.5,29.6,16.9,5.7,–,–,–,–,–,–,–,–
"O=C(Nc1nc(=O)n([C@H]2CC[C@@H](CO)O2)cc1F)c1cccnc1 [Compound 31, β-D-2′,3′-Dideoxy-5-fluoro-N^4-(nicotinoyl)cytidine]",> 50,5.9,19.4,0.17,28.1,8.8,5.5,–,–,–,–,–,–,–,–
"CCCC(=O)Nc1nc(=O)n([C@H]2CC[C@@H](CO)O2)cc1F [Compound 34, β-D-N^4-Butyryl-2′,3′-dideoxy-5-fluorocytidine]",7.2,0.71,7.6,1.6,5.8,17.1,31.6,–,–,–,–,–,–,–,–
"COc1cccc(C(=O)Nc2nc(=O)n([C@H]3C=C[C@@H](CO)O3)cc2F)c1 [Compound 43, β-D-N^4-m-Anisoyl-2′,3′-didehydro-2′,3′-dideoxy-5-fluorocytidine]",–,–,–,–,–,–,–,> 50,0.34,> 100,2.1,> 100,18.5,24.6,–
"COc1ccccc1C(=O)Nc1nc(=O)n([C@H]2C=C[C@@H](CO)O2)cc1F [Compound 44, β-D-N^4-o-Anisoyl-2,3′-didehydro-2,3-dideoxy-5-fluorocytidine]",–,–,–,–,–,–,–,> 50,> 50,3.4,14.6,5.6,13.1,3.9,–
"O=C(Nc1nc(=O)n([C@H]2C=C[C@@H](CO)O2)cc1F)c1ccc([N+](=O)[O-])cc1 [Compound 45, β-D-2′,3′-Didehydro-2′,3′-dideoxy-5-fluoro-N^4-(4-nitrobenzoyl)cytidine]",–,–,–,–,–,–,–,> 50,0.29,5.6,1.7,6.6,3.4,4.2,–
"O=C(Nc1nc(=O)n([C@H]2C=C[C@@H](CO)O2)cc1F)c1ccccc1[N+](=O)[O-] [Compound 47, β-D-2′,3′-Didehydro-2′,3′-dideoxy-5-fluoro-N^4-(2-nitrobenzoyl)cytidine]",–,–,–,–,–,–,–,> 50,> 50,> 100,39.9,> 100,80,> 100,–
"Cc1ccccc1C(=O)Nc1nc(=O)n([C@H]2C=C[C@@H](CO)O2)cc1F [Compound 50, β-D-2′,3′-Didehydro-2′,3′-dideoxy-5-fluoro-N^4-o-toluoylcytidine]",–,–,–,–,–,–,–,> 50,> 50,> 100,56.8,> 100,58.4,46.4,–
"O=C(Nc1nc(=O)n([C@H]2C=C[C@@H](CO)O2)cc1F)c1cccs1 [Compound 54, β-D-2′,3′-Didehydro-2′,3′-dideoxy-5-fluoro-N^4-(2-thiophenecarbonyl)cytidine]",–,–,–,–,–,–,–,> 50,1.5,2.3,1.6,4.8,10.2,3.9,–
"O=C(Nc1nc(=O)n([C@H]2C=C[C@@H](CO)O2)cc1F)c1cccnc1 [Compound 55, β-D-2, 3′-Didehydro-2′,3′-dideoxy-5-fluoro-N^4-nicotinoylcytidine]",–,–,–,–,–,–,–,> 50,29,10.3,42.3,13.1,13.8,6.7,–
"O=C(Nc1nc(=O)n([C@H]2C=C[C@@H](CO)O2)cc1F)c1cc2ccccc2s1 [Compound 56, β-D-2′,3′-Didehydro-2′,3′-dideoxy-5-fluoro-N-(benzo[b]thiophene-2-carbonyl)cytidine]",–,–,–,–,–,–,–,> 50,0.3,1.3,0.29,5.6,2.2,2.8,–
